Laboratory results: US20170226139A1, “CRYSTALLINE SALTS OF (Z)-O-OCTADEC-9-EN-1-YL O,O-DIHYDROGEN PHOSPHOROTHIOATE” (priority 2013, published 2017)
≈ marks a conversion by molar mass, not a printed value.

Key:
[1] = test system: male Rhesus macaque Animal Model of GI-ARS; assay: Survival after partial body irradiation, male Rhesus macaque Animal Model of GI-ARS; type: in vivo
Method: Using a partial body irradiation (tibial sparing) animal model in the female C57BL/6 mice, we tested the survival advantages conferred by GMP Rx100.L-Lysine salt. As a result, when administered at 0.3 to 3 mg/kg/12 h×6 doses starting at +24 hours after exposure to 15.5 to 15.7 Gy from a ^137Cesium irradiator which otherwise reliably produces an LD70-90/10 (in 10 days, 70-90% mice die after irradiation), the mortality was reduced by 20% to 50%. When administered at 0.1 mg/kg/day×6 doses in a partial body irradiation Animal Model in 19 male Rhesus macaque, a 37% increase in survival at a normally LD70/34 dose of X-ray radiation was observed. By allometric scaling using body surface area, these lowest effective doses translate to 0.02 mg/kg/day and to 0.03 mg/kg/day in humans, respectively.
These Animal Model studies were all conducted using partial body irradiation (PBI) with tibial bone marrow sparing except the earliest study which was performed with Total Abdominal Irradiation (TAI). The male Rhesus macaque model was developed by MacVittie. The female inbred murine PBI GI-ARS Animal Model was developed by the inventors. […] Differences in radiation sensitivity by gender in rodent species are well appreciated. We are not aware of PBI GI-ARS models other than these that meet criteria required to conduct a prospective, blinded, controlled, randomized study of efficacy.

Human LPA2 = Human LPA2 (Homo sapiens, UniProt Q9HBW0); assay: Competition binding assay, displacement of [3H]LPA from membranes of transfected HEK293 cells; set-up: expressed in transfected cells; host or cells: HEK293 (crude membrane fraction); conditions: 20 nM [3H]LPA; membranes of HEK293 cells transfected with human LPA2
Chain of Human LPA2 (Q9HBW0 whole entry): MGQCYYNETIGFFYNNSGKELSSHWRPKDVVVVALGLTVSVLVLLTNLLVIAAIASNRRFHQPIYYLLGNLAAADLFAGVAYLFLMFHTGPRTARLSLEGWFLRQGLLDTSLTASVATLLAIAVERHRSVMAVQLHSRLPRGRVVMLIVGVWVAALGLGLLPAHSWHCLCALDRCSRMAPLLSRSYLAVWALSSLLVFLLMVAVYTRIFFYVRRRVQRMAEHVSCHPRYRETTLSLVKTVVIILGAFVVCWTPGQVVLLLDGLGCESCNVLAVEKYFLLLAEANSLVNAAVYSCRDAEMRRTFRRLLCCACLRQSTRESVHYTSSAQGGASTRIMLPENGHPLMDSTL
Method: A further study was performed to evaluate whether Rx100 displaces lysophosphatidic acid bound to its receptor. HEK293 cells were transfected with human LPA2 receptor.

[2] = test system: bone marrow cells (micronucleated PCEs); assay: In vivo rat bone marrow micronucleus assay; set-up: species or system Sprague-Dawley rats; conditions: 500 mg/kg single subcutaneous dose
[3] = Solubility measurement by gravimetric method in various solvents; type: physicochemical; conditions: for solubility: thermodynamic from solid
Method: In addition, the Rx100 L-Lysate salt was further characterized under abbreviated polymorph evaluation. First, the solubility measurement by gravimetric method was performed. Briefly, excess amount of solid was slurried in various solvents at ambient conditions and elevated temperature (50° C.) for minimum of 24 hours. The slurry was centrifuged using a temperature controlled centrifuge and the supernatant was used for gravimetric method. Table 15 presents the solubility data measured using this gravimetric method in various solvents for the L-Lysine salt. In cases where the solvent dissolved all of the solid, the value is shown as “greater than”.

Male Sprague-Dawley rats [4] = assay: Respiratory system safety pharmacology (plethysmograph); type: in vivo
Method: Male Sprague-Dawley rats (n=6/group) were administered Rx100.lysine as a single oral (gavage) doses of 0 (10 mM histidine in sterile water for injection, USP), 1.81, 6.33, and 18.1 mg/kg and monitored for respiratory function. Animals were placed in a plesthymograph and monitored at pre-dose and for consecutive 30 minute averages beginning 30 minutes postdose through 6 hours postdose and again at 24 hours postdose. Parameters evaluated included tidal volume, respiratory rate and minute volume. […] It was concluded that there were no adverse effects on the respiratory system in rats at doses of 1.81 mg/kg.

Male Sprague-Dawley rats [5] = assay: Gastrointestinal system safety pharmacology (charcoal transit, gastric emptying); type: in vivo
Method: Male Sprague-Dawley rats (n=6/group) were administered Rx100.lysine as a single oral (gavage) doses of 0 (10 mM histidine in sterile water for Injection, USP), 1.81, 6.33, and 18.1 mg/kg and monitored for gastrointestinal parameters of transit time and gastric emptying. A fifth group was treated with the positive control material morphine sulfate. Two hours after treatment, animals received an oral gavage dose of a charcoal suspension. Animals were then sacrificed 20 minutes. Parameters evaluated included gastrointestinal transit time and gastric emptying. […] No abnormal observations were recorded. […] It was concluded that there were no adverse effects on the gastrointestinal tract in rats at doses of 1.81 mg/kg (gastric emptying) or 6.33 mg/kg (transit time).

[6] = UC Davis 2011, Rhesus (♂), 0.1 mg/kg (q24 × 6), start +4, 11.5 Gy, non-GLP
[7] = UC Davis 2011, Rhesus (♂), 0.1 mg/kg (q24 × 6), start +4, 11.5 Gy, non-GLP, vs vehicle
[8] = abbreviated polymorph screening
[9] = male, Sprague-Dawley, rat, in vivo, oral, 140 min

For CCCCCCCC/C=C\CCCCCCCCOP(O)(O)=S [Rx100, (Z)—O-octadec-9-en-1-yl O,O-dihydrogen phosphorothioate], the “Survival Day 10, Rx100 arm (survivors/animals)” value [1, 6] was 2/9, the “Survival Day ≧30, Rx100 arm (survivors/animals)” value [1, 6] was 6/9 and the “Survival Advantage Day 10” value [1, 7] was 8%. For the same compound, the “Survival Advantage Day ≧30” value [1, 7] was 37% and the “displacement of 3H-LPA” value (Human LPA2) was “displaced 3H-LPA in a concentration-dependent manner”.

For CCCCCCCC/C=C\CCCCCCCCOP(O)(O)=S [Rx100.L-Lysine, (Z)—O-octadec-9-en-1-yl O,O-dihydrogen phosphorothioate], the increase in survival ([1]; 0.1 mg/kg/day×6 doses, 19 male Rhesus macaque, normally LD70/34 dose of X-ray radiation) was 37%, the “Mean % MNPC (±SD) Male” value ([2]; harvest 24 hour) was 0.09% and the “Mean Ratio PCE:NCE (±SD) Male” value ([2]; harvest 24 hour) was 0.52. The “Mean % MNPC (±SD) Male” value ([2]; harvest 48 hour) was 0.08%, the “Solubility, gravimetric method” value ([3]; EtOH:water (v/v) [1:1], 25° C.) was “Gelled” and the “Solubility, gravimetric method” value ([3]; EtOH:water (v/v) [7:3], 25° C.) was “Gelled”. For the same compound, the “Solubility, gravimetric method” value ([3]; EtOH:water (v/v) [7:3], 50° C.) was “Gelled”, the “Solubility, gravimetric method” value ([3]; IPA:water (v/v) [7:3], 25° C.) was “Gelled” and the “Solubility, gravimetric method” value ([3]; IPA:water (v/v) [7:3], 50° C.) was “Gelled”. For the same compound, the “Solubility, gravimetric method” value ([3]; MeOH:water (v/v) [1:1], 25° C.) was “Gelled”, the “Solubility, gravimetric method” value ([3]; MeOH:water (v/v) [7:3], 50° C.) was “Gelled” and the “Solubility in most aqueous solvent systems” value [3, 8] was “moderate to high solubility”. For the same compound, the “Solubility in organic systems” value [3, 8] was “limited solubility”, the solubility ([3]; aqueous with cosolvent or surfactant or cyclodextrin, EtOH:water (v/v) [1:1], 50° C.) was > 68 mg/mL and the solubility ([3]; aqueous with cosolvent or surfactant or cyclodextrin, EtOH:water (v/v) [3:7], 25° C.) was > 40 mg/mL. The solubility ([3]; aqueous with cosolvent or surfactant or cyclodextrin, EtOH:water (v/v) [3:7], 50° C.) was > 84 mg/mL, the solubility ([3]; aqueous with cosolvent or surfactant or cyclodextrin, IPA:water (v/v) [1:1], 25° C.) was > 40 mg/mL and the solubility ([3]; aqueous with cosolvent or surfactant or cyclodextrin, IPA:water (v/v) [1:1], 50° C.) was > 86 mg/mL. For the same compound, the solubility ([3]; aqueous with cosolvent or surfactant or cyclodextrin, IPA:water (v/v) [3:7], 25° C.) was > 46 mg/mL, the solubility ([3]; aqueous with cosolvent or surfactant or cyclodextrin, IPA:water (v/v) [3:7], 50° C.) was > 70 mg/mL and the solubility ([3]; aqueous with cosolvent or surfactant or cyclodextrin, MeOH:water (v/v) [1:1], 50° C.) was > 80 mg/mL. The solubility ([3]; aqueous with cosolvent or surfactant or cyclodextrin, MeOH:water (v/v) [3:7], 25° C.) was > 48 mg/mL, the solubility ([3]; aqueous with cosolvent or surfactant or cyclodextrin, MeOH:water (v/v) [3:7], 50° C.) was > 86 mg/mL and the solubility ([3]; aqueous with cosolvent or surfactant or cyclodextrin, MeOH:water (v/v) [7:3], 25° C.) was 20 mg/mL (≈ 54.9 mM). It also gave a solubility ([3]; organic solvent or mixture, EtOH, 50° C.) of 3 mg/mL (≈ 8.23 mM), a solubility ([3]; organic solvent or mixture, Heptane, 50° C.) of 3 mg/mL (≈ 8.23 mM) and a solubility ([3]; organic solvent or mixture, IPA, 50° C.) of 5 mg/mL (≈ 13.7 mM). The solubility ([3]; organic solvent or mixture, MTBE, 50° C.) was 4 mg/mL (≈ 11 mM), the solubility ([3]; organic solvent or mixture, MeOH, 50° C.) was 4 mg/mL (≈ 11 mM) and the solubility ([3]; Water, 25° C.) was > 48 mg/mL. The solubility ([3]; Water, 50° C.) was > 76 mg/mL, the “effects on respiratory parameters” value (Male Sprague-Dawley rats [4]; 1.81 mg/kg) was “No statistically significant or biologically meaningful effects” and the “increase in respiratory rates” value (Male Sprague-Dawley rats [4]; 6.33 mg/kg) was 68%. For the same compound, the “reduction in tidal volume” value (Male Sprague-Dawley rats [4]; 6.33 mg/kg) was 29%, the “respiratory values 24 hours post dose” value (Male Sprague-Dawley rats [4]; 6.33 mg/kg) was “essentially normal” and the “increase in respiratory rates” value (Male Sprague-Dawley rats [4]; 18.1 mg/kg) was 65%. For the same compound, the “reduction in tidal volume” value (Male Sprague-Dawley rats [4]; 18.1 mg/kg) was 32%, the “respiratory values 24 hours post dose” value (Male Sprague-Dawley rats [4]; 18.1 mg/kg, reduced in magnitude) was “still showed effects” and the “dose with no adverse effects on the respiratory system” value (Male Sprague-Dawley rats [4]; male, Sprague-Dawley, rat, in vivo, oral, 24 h) was 1.81 mg/kg. The gastric emptying (Male Sprague-Dawley rats [5]; 6.33 and 18.1 mg/kg, statistically significant only at 6.33 mg/kg) was “inhibited”, the “dose with no adverse effects on gastric emptying” value (Male Sprague-Dawley rats [5]; [9]) was 1.81 mg/kg and the “dose with no adverse effects on transit time” value (Male Sprague-Dawley rats [5]; [9]) was 6.33 mg/kg. The intestinal transit time (Male Sprague-Dawley rats [5]; only at 18.1 mg/kg) was “increased”.
